Patent US11123357B2, “Methods and compositions for treating oral mucositis” (Lakewood Amedex, Inc., priority 2018, dated 2021)

Assays:
[1] = system: oral mucositis induced by acute radiation; assay: Oral mucositis induced by acute radiation in hamsters (blinded mucositis scoring); format: in vivo, Syrian Golden Hamsters; design: key to peak mean mucositis score: 0 = normal, 5 = severe ulceration (photographic scale); details: for % Days ≥ 3 / Days < 3 (animal days with mucositis score <3) / Days ≥ 3 (animal days with mucositis score ≥3): through Day 28
Text: The objective of the study was to test the efficacy of Nu-8 in the treatment of oral mucositis induced by acute radiation in hamsters.
Normal male Syrian Golden Hamsters (Charles River Laboratories), aged 5 to 6 weeks, with average body weight (±SD) of 92.83±3.36 g at study commencement, were used. Animals were individually numbered using an ear punch and housed in small groups. Animals were acclimatized prior to study commencement. During this period, the animals were observed daily in order to reject animals that were in poor condition.
Animals were randomly and prospectively divided into three (3) groups of eight (8) animals each prior to irradiation. Each animal was identified by an ear punch corresponding to an individual number. A cage card was used to identify each cage or label marked with the study number (LKW-01), treatment group number and animal numbers.
Formulation: • 1. Make fresh daily. Weigh out necessary amount of compound and dissolve in normal saline. Titrate with citric acid to bring pH of solution down to approximate 3.5 (pH range 3 to 4). • 2. The vehicle administered to animals in Group 1 was also titrated with citric acid to a pH of ˜3.5 (pH range 3 to 4).
Mucositis was induced using a single of radiation (40 Gy) administered on Day 0. Radiation was generated with a 160-kilovolt potential (18.75-ma) source at a focal distance of 10 cm, hardened with a 3.0 mm Al filtration system. Irradiation targeted the left buccal pouch mucosa at a rate of 2-2.5 Gy/minute. Prior to irradiation, animals were anesthetized with an intraperitoneal injection of ketamine (160 mg/kg) and xylazine (8 mg/kg). The left buccal pouch was everted, fixed and isolated using a lead shield.
Starting on Day 6 and continuing every second day thereafter (Days 8, 10, 12, 14, 16, 18, 20, 22, 24, 26, 28) each animal was photographed and evaluated for mucositis scoring. For the evaluation of mucositis, the animals were anesthetized with an inhalation anesthetic and the left pouch everted. Mucositis was scored visually by comparison to a validated photographic scale (FIGS. 1A-1F), ranging from 0 for normal, to 5 for severe ulceration (clinical scoring). In descriptive terms, this scale is defined as follows: […]
A score of 1-2 is considered to represent a mild stage of the disease, whereas a score of 3-5 is considered to indicate moderate to severe ulcerative mucositis. Following visual clinical scoring, a photograph was taken of each animal's mucosa using a standardized technique. At the conclusion of the experiment, the photographs were randomly numbered and scored by two independent, trained observers who graded the images in blinded fashion using the above-described scale (blinded scoring). For each photograph, the actual blinded score was based on the average of the 2 observers' scores. Only the scores from the blinded, photographic evaluation were reported and used for statistical analyses. Hamsters reaching a mucositis severity score of 4 or higher received buprenorphine (0.5 mg/kg) SC twice a day for 48 hours or until score dropped below 4. Statistical Analyses
Using the blinded photographs, statistical differences between treatment groups were determined using Mann-Whitney Rank Sum test and chi-square analysis with a critical value of 0.05. It was anticipated that up to 10% animal death may occur, primarily as a result of the administration of anesthetics. However, the number of animals expected to remain alive at Day 28 (6 per treatment group) was considered acceptable for statistical evaluation.
The difference in the number of days hamsters in each group have severe mucositis (score ≥3) was analyzed. On each day the animals were scored (evaluation day), the number of animals with a blinded mucositis score of ≥3 in each treatment group was compared to the Vehicle control group. Differences were analyzed on a daily as well as a cumulative basis. […]

[2] = Mean daily percent body weight change in irradiated hamsters; format: in vivo, Syrian Golden Hamsters; details: Group 3 (10% Nu-8, TID topical); p<0.05
Text: The mean daily percent body weight change data are shown in FIG. 2 for animals in all groups. Animals steadily gained weight throughout the duration of the study.

SMILES: CCCCOP(=O)(O)OC[C@H]1O[C@@H](n2ccc(N)nc2=O)C[C@@H]1OP(=O)(O)OCCCC [Nu-8, ((2R,3S,5R)-5-(4-amino-2-oxopyrimidin-1(2H)-yl)-3-((butoxyoxidophosphor-yl)oxy)tetrahydrofuran-2-yl)methyl butyl phosphate]
- days of significant improvement in mucositis scores vs. Vehicle (Mann-Whitney rank sum) ([1]; 1% Nu-8 (Group 2)): one day of significant improvement
- Chi Sq vs. Vehicle (animal days with score ≥3) ([1]; 1% Nu-8, TID topical): 2.094
- Percent Ulceration by Day (Score ≥ 3) ([1]; 1% Nu-8, TID topical, Day 6): 0.0%
- Percent Ulceration by Day (Score ≥ 3) ([1]; 1% Nu-8, TID topical, Day 8): 0.0%
- Percent Ulceration by Day (Score ≥ 3) ([1]; 1% Nu-8, TID topical, Day 10): 0.0%
- Percent Ulceration by Day (Score ≥ 3) ([1]; 1% Nu-8, TID topical, Day 12): 0.0%
- Percent Ulceration by Day (Score ≥ 3) ([1]; 1% Nu-8, TID topical, Day 14): 12.5%
- Percent Ulceration by Day (Score ≥ 3) ([1]; 1% Nu-8, TID topical, Day 16): 50.0%
- Percent Ulceration by Day (Score ≥ 3) ([1]; 1% Nu-8, TID topical, Day 18): 87.5%
- Percent Ulceration by Day (Score ≥ 3) ([1]; 1% Nu-8, TID topical, Day 20): 87.5%
- Percent Ulceration by Day (Score ≥ 3) ([1]; 1% Nu-8, TID topical, Day 22): 87.5%
- Percent Ulceration by Day (Score ≥ 3) ([1]; 1% Nu-8, TID topical, Day 24): 87.5%
- Percent Ulceration by Day (Score ≥ 3) ([1]; 1% Nu-8, TID topical, Day 26): 50.0%
- Percent Ulceration by Day (Score ≥ 3) ([1]; 1% Nu-8, TID topical, Day 28): 25.0%
- peak mean mucositis score ([1]; 1% Nu-8, TID topical, on Day 18): 2.88±0.13
- % Days ≥ 3 ([1]; 1% Nu-8, TID topical): 40.63%
- Days < 3 (animal days with mucositis score <3) ([1]; 1% Nu-8, TID topical): 57
- Days ≥ 3 (animal days with mucositis score ≥3) ([1]; 1% Nu-8, TID topical): 39
- days of significant improvement in mucositis scores vs. Vehicle (Mann-Whitney rank sum) ([1]; 10% Nu-8 (Group 3)): multiple days of significant improvement
- Chi Sq vs. Vehicle (animal days with score ≥3) ([1]; 10% Nu-8, TID topical): 30.762
- disease severity in comparison to vehicle-dosed animals ([1]; 10% Nu-8, TID topical): robust mitigation of disease severity
- Percent Ulceration by Day (Score ≥ 3) ([1]; 10% Nu-8, TID topical, Day 6): 0.0%
- Percent Ulceration by Day (Score ≥ 3) ([1]; 10% Nu-8, TID topical, Day 8): 0.0%
- Percent Ulceration by Day (Score ≥ 3) ([1]; 10% Nu-8, TID topical, Day 10): 0.0%
- Percent Ulceration by Day (Score ≥ 3) ([1]; 10% Nu-8, TID topical, Day 12): 0.0%
- Percent Ulceration by Day (Score ≥ 3) ([1]; 10% Nu-8, TID topical, Day 14): 12.5%
- Percent Ulceration by Day (Score ≥ 3) ([1]; 10% Nu-8, TID topical, Day 16): 25.0%
- Percent Ulceration by Day (Score ≥ 3) ([1]; 10% Nu-8, TID topical, Day 18): 25.0%
- Percent Ulceration by Day (Score ≥ 3) ([1]; 10% Nu-8, TID topical, Day 20): 25.0%
- Percent Ulceration by Day (Score ≥ 3) ([1]; 10% Nu-8, TID topical, Day 22): 25.0%
- Percent Ulceration by Day (Score ≥ 3) ([1]; 10% Nu-8, TID topical, Day 24): 12.5%
- Percent Ulceration by Day (Score ≥ 3) ([1]; 10% Nu-8, TID topical, Day 26): 0.0%
- Percent Ulceration by Day (Score ≥ 3) ([1]; 10% Nu-8, TID topical, Day 28): 0.0%
- peak mean mucositis score ([1]; 10% Nu-8, TID topical, on Days 16 & 18): 2.29±0.18
- % Days ≥ 3 ([1]; 10% Nu-8, TID topical): 11.90%
- Days < 3 (animal days with mucositis score <3) ([1]; 10% Nu-8, TID topical): 74
- Days ≥ 3 (animal days with mucositis score ≥3) ([1]; 10% Nu-8, TID topical): 10
- percentage of days with a score of ≥3 in comparison to the Vehicle control group ([1]; 10% Nu-8, chi-square analysis): statistically different
- percent ulceration in comparison to vehicle-dosed animal ([1]; both dose concentrations (1% and 10%), numerous days): percent ulceration that was lower in comparison to vehicle-dosed animal
- disease onset (mean daily mucositis scores) ([1]; both groups treated with Nu-8 (1% and 10%), more so with 10%): modest attenuation of disease onset
- mean percent weight change vs. vehicle group (AUC analysis, one-way ANOVA) [2]: statistically significant lower mean percent weight change
